In PMC6158189, “A pharmacological probe identifies cystathionine β-synthase as a new negative regulator for ferroptosis” (Cell Death & Disease, 2018):
“Also recorded” adds a separate entry of the source.

Assays:
[1] = molecular target: T1, CBS-FL mutant (293T-CBS Q222A) (Homo sapiens, UniProt P35520, Q222A); assay: H2S in HEK293T cells stably expressing CBS Q222A (AzMC probe); type: cell-based; conditions: 5 and 10 μM CH004, 8 h
T1 construct: human CBS or hCSE full-length (CBS-FL or CSE) was subcloned into pGEX-KG, pcDNA3 or pCDH vector; expressed in transfected cells
Protocol: HEK293T cells were transiently transfected with empty vector (EV, i and ii), hCBS-FL (iii and iv) or hCSE (v and vi) plasmids, followed by incubation with DMSO (i–iii and v) or 10 μM CH004 (iv and vi) for 8 h before staining with 50 μM AzMC, a H2S-specific probe (“Materials and Methods” section). For larger fluorescent and bright-field images, please see Supplementary Figure 4. The expression levels of hCBS or hCSE in HEK293T cells after transient transfections were determined by western blotting using an anti-CBS antibody (3E1, 1:2000; Abnova) or anti-CSE antibody (1:500, GeneTex). The densities of protein bands for hCBS or hCSE in the blots were quantified with the ImageJ software (National Institutes of Health, Bethesda, MD, USA) and expressed as ratios of respective control (EV group). […] The fluorescent images of the H2S (blue) were accordingly quantified (“Materials and Methods” section) with ImageJ. […] A representative fluorescence image from three independent experiments is shown. […]
H2S levels in living cells were detected using a H2S-specific fluorescent probe according to a protocol described previously[31],[55]. […] After incubation with 50 μM AzMC at 37 °C for 30 min, the cells were washed 4 times with PBS, and the fluorescent images were recorded with excitation by 405 nm laser by using a A1Si (Nikon) confocal microscope. […]

H22 cells = assay: cell viability (CellTiter 96 Aqueous One); type: cell-based, mouse
Protocol: To measure cell viability and cytotoxicity, HepG2, HEK293T, Huh-7, H22, Panc-28, HCT116 and MDA-MB-231 cells were seeded at a density of ~ 2 × 10^4 cells per well in 96-well plates (Coring, NY, USA) for one day, followed by incubation with DMSO or various concentrations of tested compound for indicated times. Then, the cells were collected to measure the cell viability using the CellTiter 96® Aqueous One Solution Cell Proliferation Assay (Promega, G3581) according to the standard protocols.
Figure S11. The effects of CH004 on cell viability in various types of cancer cell lines. (A) Dose-dependent curves of CH004 on cell viability of HepG2 cells (▲), HEK293T cells (○). Percentages of cell viability of CH004 obtained in Figure 4a were fitted to the non-linear equation using GraphPad Prism 5 to get the IC50 values of CH004 in respective cell lines. Means ± SDs (n=3). […] (B) MDA-MB-231 (breast cancer cell cline), HCT116 (colon cancer), Panc-28 cells (pancreas cancer), Huh7 cells (hepatocellular carcinoma) and H22 (mouse liver cancer) were incubated with DMSO (control) or indicated concentrations of CH004 for 24 h in a 96-well plate before assessing cell viability using the CellTiter96® Aqueous One Solution Cell Proliferation Assay (Promega). The data are shown as percentages of control (DMSO, 100%). Means ± SDs (n=3). (C) The dose-dependent curve of CH004 on cell viability. […]

Cn1nc(Cc2ccccc2)nc2c(=O)n(C)c(=O)nc1-2 [CH004, 3-benzyl-1,6-dimethylpyrimido[5,4-e][1,2,4]triazine-5,7(1H,6H)-dione]
effect on H2S [1]: no significant decrease; also recorded: hardly affected
IC50 (H22 cells; 24 h): ~13 µM
IC50 (H22 cells; Mus musculus, H22, 24 h): 12.9 ± 0.7 µM
